Experimental data taken from PubChem BioAssay (NCI).
Converted amounts (≈) assume the structure as drawn.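 Dose response: 5 concentrations. Exposure: 48 h. Format: 96-well plates. Endpoint: linear interpolation; highest concentration if not reached. The concentration for 50% growth inhibition is given as GI50. Definition used: TGI = concentration required for complete inhibition of growth.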 Residues, ends and D or L forms follow the SMILES beside them. *: point of attachment. Boc = CC(C)(C)OC(=O)*

Legend:
Assay in all cases: growth of human tumour cells (NCI), 48 h
A549 NSCLC = system: A549 NSCLC
BT-549 breast = system: BT-549 breast
CCRF-CEM leukemia = system: CCRF-CEM leukemia
COLO 205 colon = system: COLO 205 colon
DU-145 prostate = system: DU-145 prostate
EKVX NSCLC = system: EKVX NSCLC
HCC-2998 colon = system: HCC-2998 colon
HCT-116 colon = system: HCT-116 colon
HCT-15 colon = system: HCT-15 colon
HL-60(TB) leukemia = system: HL-60(TB) leukemia
HOP-92 NSCLC = system: HOP-92 NSCLC
HS 578T breast = system: HS 578T breast
IGROV1 ovarian = system: IGROV1 ovarian
K-562 leukemia = system: K-562 leukemia
KM12 colon = system: KM12 colon
LOX IMVI melanoma = system: LOX IMVI melanoma
M14 melanoma = system: M14 melanoma
MALME-3M melanoma = system: MALME-3M melanoma
MCF7 breast = system: MCF7 breast
MDA-MB-231 breast = system: MDA-MB-231 breast
MDA-MB-435 = system: MDA-MB-435
MDA-N = system: MDA-N
MOLT-4 leukemia = system: MOLT-4 leukemia
NCI-H23 lung = system: NCI-H23 lung
NCI-H460 lung = system: NCI-H460 lung
NCI-H522 lung = system: NCI-H522 lung
OVCAR-3 ovarian = system: OVCAR-3 ovarian
OVCAR-8 ovarian = system: OVCAR-8 ovarian
RPMI-8226 leukemia = system: RPMI-8226 leukemia
SF-268 CNS = system: SF-268 CNS
SF-295 CNS = system: SF-295 CNS
SF-539 CNS = system: SF-539 CNS
SK-MEL-2 melanoma = system: SK-MEL-2 melanoma
SK-MEL-28 melanoma = system: SK-MEL-28 melanoma
SK-OV-3 ovarian = system: SK-OV-3 ovarian
SN12C renal = system: SN12C renal
SNB-75 CNS = system: SNB-75 CNS
SR leukemia = system: SR leukemia
SW-620 colon = system: SW-620 colon
TK-10 renal = system: TK-10 renal
U251 CNS = system: U251 CNS
UACC-257 melanoma = system: UACC-257 melanoma
UACC-62 melanoma = system: UACC-62 melanoma
786-0 renal = system: 786-0 renal
A498 renal = system: A498 renal
ACHN renal = system: ACHN renal
HT29 colon = system: HT29 colon
NCI-H226 lung = system: NCI-H226 lung
NCI/ADR-RES ovarian = system: NCI/ADR-RES ovarian
OVCAR-4 ovarian = system: OVCAR-4 ovarian
PC-3 prostate = system: PC-3 prostate
RXF 393 renal = system: RXF 393 renal
SK-MEL-5 melanoma = system: SK-MEL-5 melanoma
SNB-19 CNS = system: SNB-19 CNS
UO-31 renal = system: UO-31 renal
CAKI-1 renal = system: CAKI-1 renal
HOP-62 NSCLC = system: HOP-62 NSCLC
OVCAR-5 ovarian = system: OVCAR-5 ovarian

SMILES: COC(=O)CNC(=O)C(Cc1ccccc1)NC(=O)C(Cc1ccccc1)NC(=O)OC(C)(C)C (stereo not drawn) (Boc-Phe-Phe-Gly-OMe; configuration not given here)
- GI50 (A549 NSCLC): 83.3 mg/L (≈ 172 µM)
- GI50 (BT-549 breast): 27.8 mg/L (≈ 57.5 µM)
- TGI (BT-549 breast): 69.2 mg/L
- GI50 (CCRF-CEM leukemia): 21.1 mg/L (≈ 43.6 µM)
- TGI (CCRF-CEM leukemia): 48.9 mg/L
- GI50 (COLO 205 colon): 13.5 mg/L (≈ 27.9 µM)
- TGI (COLO 205 colon): 69.5 mg/L
- GI50 (DU-145 prostate): 27.7 mg/L (≈ 57.3 µM)
- GI50 (EKVX NSCLC): 37.1 mg/L (≈ 76.6 µM)
- GI50 (HCC-2998 colon): 18.9 mg/L (≈ 39 µM)
- TGI (HCC-2998 colon): 40.2 mg/L
- GI50 (HCT-116 colon): 22.5 mg/L (≈ 46.5 µM)
- TGI (HCT-116 colon): 53.3 mg/L
- GI50 (HCT-15 colon): 69.8 mg/L (≈ 144 µM)
- GI50 (HL-60(TB) leukemia): 26.5 mg/L (≈ 54.7 µM)
- TGI (HL-60(TB) leukemia): 54.8 mg/L
- GI50 (HOP-92 NSCLC): 24.9 mg/L (≈ 51.5 µM)
- TGI (HOP-92 NSCLC): 43.7 mg/L
- GI50 (HS 578T breast): 32.8 mg/L (≈ 67.8 µM)
- GI50 (IGROV1 ovarian): 41.6 mg/L (≈ 86 µM)
- GI50 (K-562 leukemia): 20.7 mg/L (≈ 42.8 µM)
- TGI (K-562 leukemia): 41.2 mg/L
- GI50 (KM12 colon): 28 mg/L (≈ 57.8 µM)
- TGI (KM12 colon): 74.5 mg/L
- GI50 (LOX IMVI melanoma): 20.8 mg/L (≈ 43 µM)
- TGI (LOX IMVI melanoma): 50.4 mg/L
- GI50 (M14 melanoma): 27.9 mg/L (≈ 57.6 µM)
- TGI (M14 melanoma): 65.9 mg/L
- GI50 (MALME-3M melanoma): 22.3 mg/L (≈ 46.1 µM)
- TGI (MALME-3M melanoma): 55 mg/L
- GI50 (MCF7 breast): 34.8 mg/L (≈ 72 µM)
- GI50 (MDA-MB-231 breast): 48.5 mg/L (≈ 100 µM)
- GI50 (MDA-MB-435): 42.8 mg/L (≈ 88.5 µM)
- GI50 (MDA-N): 32.9 mg/L (≈ 68.1 µM)
- GI50 (MOLT-4 leukemia): 18.4 mg/L (≈ 38.1 µM)
- TGI (MOLT-4 leukemia): 38.8 mg/L
- GI50 (NCI-H23 lung): 35.7 mg/L (≈ 73.8 µM)
- GI50 (NCI-H460 lung): 33.7 mg/L (≈ 69.6 µM)
- GI50 (NCI-H522 lung): 2.35 mg/L (≈ 4.86 µM)
- TGI (NCI-H522 lung): 12.2 mg/L
- GI50 (OVCAR-3 ovarian): 20 mg/L (≈ 41.4 µM)
- TGI (OVCAR-3 ovarian): 42.9 mg/L
- GI50 (OVCAR-8 ovarian): 25.7 mg/L (≈ 53.1 µM)
- TGI (OVCAR-8 ovarian): 74.2 mg/L
- GI50 (RPMI-8226 leukemia): 20.9 mg/L (≈ 43.2 µM)
- TGI (RPMI-8226 leukemia): 49 mg/L
- GI50 (SF-268 CNS): 78.4 mg/L (≈ 162 µM)
- GI50 (SF-295 CNS): 51.1 mg/L (≈ 106 µM)
- GI50 (SF-539 CNS): 21.4 mg/L (≈ 44.3 µM)
- TGI (SF-539 CNS): 41 mg/L
- GI50 (SK-MEL-2 melanoma): 41.2 mg/L (≈ 85.2 µM)
- GI50 (SK-MEL-28 melanoma): 18.7 mg/L (≈ 38.7 µM)
- TGI (SK-MEL-28 melanoma): 38.2 mg/L
- GI50 (SK-OV-3 ovarian): 59.6 mg/L (≈ 123 µM)
- GI50 (SN12C renal): 31.3 mg/L (≈ 64.6 µM)
- GI50 (SNB-75 CNS): 30.1 mg/L (≈ 62.2 µM)
- GI50 (SR leukemia): 21.7 mg/L (≈ 44.8 µM)
- TGI (SR leukemia): 46.4 mg/L
- GI50 (SW-620 colon): 49.1 mg/L (≈ 102 µM)
- GI50 (TK-10 renal): 37.6 mg/L (≈ 77.8 µM)
- GI50 (U251 CNS): 32.4 mg/L (≈ 67 µM)
- TGI (U251 CNS): 94.7 mg/L
- GI50 (UACC-257 melanoma): 32.4 mg/L (≈ 67 µM)
- GI50 (UACC-62 melanoma): 15.6 mg/L (≈ 32.2 µM)
- TGI (UACC-62 melanoma): 28.9 mg/L

SMILES: CC(C)(C)OC(=O)C1C(=O)NC(=O)CC1CC(OCc1ccccc1)C(COCc1ccccc1)OCc1ccccc1 (stereo unspecified)
- TGI (786-0 renal): > 100 µM
- TGI (A498 renal): > 100 µM
- TGI (A549 NSCLC): > 100 µM
- TGI (ACHN renal): 70.4 µM
- TGI (BT-549 breast): 32.8 µM
- TGI (CCRF-CEM leukemia): > 100 µM
- TGI (DU-145 prostate): 80.6 µM
- TGI (EKVX NSCLC): > 100 µM
- TGI (HCC-2998 colon): 50.4 µM
- TGI (HCT-116 colon): > 100 µM
- TGI (HCT-15 colon): 39.1 µM
- TGI (HL-60(TB) leukemia): 4.34 µM
- TGI (HOP-92 NSCLC): 46.2 µM
- TGI (HS 578T breast): 66.6 µM
- TGI (HT29 colon): 14.3 µM
- TGI (IGROV1 ovarian): > 100 µM
- TGI (K-562 leukemia): > 100 µM
- TGI (LOX IMVI melanoma): 25.5 µM
- TGI (M14 melanoma): > 100 µM
- TGI (MALME-3M melanoma): 11.5 µM
- TGI (MDA-MB-435): 20.7 µM
- TGI (MDA-N): 79.1 µM
- TGI (MOLT-4 leukemia): 13.1 µM
- TGI (NCI-H226 lung): 93.3 µM
- TGI (NCI-H23 lung): 45.7 µM
- TGI (NCI-H460 lung): > 100 µM
- TGI (NCI/ADR-RES ovarian): 82.8 µM
- TGI (OVCAR-4 ovarian): > 100 µM
- TGI (OVCAR-8 ovarian): > 100 µM
- TGI (PC-3 prostate): 37.7 µM
- TGI (RPMI-8226 leukemia): 15.8 µM
- TGI (RXF 393 renal): 8.95 µM
- TGI (SF-268 CNS): > 100 µM
- TGI (SF-295 CNS): > 100 µM
- TGI (SF-539 CNS): 39.8 µM
- TGI (SK-MEL-28 melanoma): > 100 µM
- TGI (SK-MEL-5 melanoma): 27.5 µM
- TGI (SN12C renal): > 100 µM
- TGI (SNB-19 CNS): > 100 µM
- TGI (SR leukemia): 25 µM
- TGI (SW-620 colon): > 100 µM
- TGI (TK-10 renal): > 100 µM
- TGI (U251 CNS): 24.8 µM
- TGI (UACC-257 melanoma): 53.4 µM
- TGI (UO-31 renal): 6.02 µM

SMILES: Cc1cc(C)c(S(=O)(=O)N2CCN(S(=O)(=O)c3c(C)cc(C)cc3C)OCCCCCO2)c(C)c1
- TGI (786-0 renal): > 100 µM
- TGI (A498 renal): > 100 µM
- TGI (A549 NSCLC): > 100 µM
- TGI (ACHN renal): > 100 µM
- TGI (BT-549 breast): > 100 µM
- TGI (CAKI-1 renal): > 100 µM
- TGI (CCRF-CEM leukemia): > 100 µM
- TGI (COLO 205 colon): > 100 µM
- TGI (DU-145 prostate): > 100 µM
- TGI (EKVX NSCLC): > 100 µM
- TGI (HCT-116 colon): > 100 µM
- TGI (HCT-15 colon): > 100 µM
- TGI (HL-60(TB) leukemia): > 100 µM
- TGI (HOP-62 NSCLC): > 100 µM
- TGI (HOP-92 NSCLC): > 100 µM
- TGI (HS 578T breast): > 100 µM
- TGI (HT29 colon): > 100 µM
- TGI (IGROV1 ovarian): > 100 µM
- TGI (K-562 leukemia): > 100 µM
- TGI (KM12 colon): > 100 µM
- TGI (LOX IMVI melanoma): > 100 µM
- TGI (M14 melanoma): > 100 µM
- TGI (MALME-3M melanoma): > 100 µM
- TGI (MCF7 breast): > 100 µM
- TGI (MDA-MB-435): > 100 µM
- TGI (MDA-N): > 100 µM
- TGI (MOLT-4 leukemia): > 100 µM
- TGI (NCI-H226 lung): > 100 µM
- TGI (NCI-H23 lung): > 100 µM
- TGI (NCI-H460 lung): > 100 µM
- TGI (NCI-H522 lung): > 100 µM
- TGI (NCI/ADR-RES ovarian): > 100 µM
- TGI (OVCAR-3 ovarian): > 100 µM
- TGI (OVCAR-4 ovarian): > 100 µM
- TGI (OVCAR-5 ovarian): > 100 µM
- TGI (OVCAR-8 ovarian): > 100 µM
- TGI (PC-3 prostate): > 100 µM
- TGI (SF-268 CNS): > 100 µM
- TGI (SF-295 CNS): > 100 µM
- TGI (SK-MEL-2 melanoma): > 100 µM
- TGI (SK-MEL-28 melanoma): > 100 µM
- TGI (SK-MEL-5 melanoma): > 100 µM
- TGI (SK-OV-3 ovarian): > 100 µM
- TGI (SN12C renal): > 100 µM
- TGI (SNB-19 CNS): > 100 µM
- TGI (SW-620 colon): > 100 µM
- TGI (TK-10 renal): > 100 µM
- TGI (U251 CNS): > 100 µM
- TGI (UACC-257 melanoma): > 100 µM
- TGI (UACC-62 melanoma): > 100 µM
- TGI (UO-31 renal): > 100 µM
